Experimental data from patent publication US20190223437A1, “ACTIVE COMPOUND COMBINATIONS COMPRISING A 5-SUBSTITUTED IMIDAZOLE DERIVATIVE” (BAYER CROPSCIENCE AKTIENGESELLSCHAFT, priority 2016, published 2019).
Read-outs that look alike come from different tables or passages of the source. Marks after values point to notes of the source that are not given here.

Test: Measurement of Log P values by HPLC on reversed phase columns (EEC directive 79/831 Annex V.A8)
Assay type: physicochemical
[1] = method [a]: LC-UV, acidic range, 0.1% formic acid in water and acetonitrile as eluent, Table 1, compounds of formula (I)

With `OC(Cc1ccccc1F)(Cn1cncc1Cl)C1(Cl)CC1` (stereo not shown) [Example I-32] the LogP was 2.07^[a].

For `N#Cc1cncn1CC(O)(Cc1ccc(F)c(F)c1F)C1CCC1` (stereo not shown) [Example I-104], the LogP was 2.78^[a].

In the case of `OC(Cc1ccccc1Cl)(Cn1cncc1Cl)C1(Cl)CC1` (stereo not shown) [Example I-02], the LogP [1] is reported as 2.32 and the LogP (method [c]: LC-UV, acidic range, 0.1% phosphoric acid and acetonitrile as eluent, Table 1) is reported as 2.00.

In the case of `OC(Cc1ccc(Br)cc1F)(Cn1cncc1Cl)C1(Cl)CC1` (racemic) [Example I-44], the LogP is reported as 2.64^[a].

In the case of `OC(Cc1cccnc1Cl)(Cn1cncc1Br)C1(Cl)CC1` (stereo not shown) [Example I-25], the LogP is reported as 1.56^[a].

In the case of `OC(Cc1ccccc1)(Cn1cncc1Cl)C1(Cl)CC1` (racemic) [Example I-39], the LogP is reported as 2.04^[a].

With `OC(Cc1ccccc1C(F)(F)F)(Cn1cncc1Cl)C1(Cl)CC1` (racemic) [Example I-89] the LogP was 2.62^[a].

With `Cc1cccc(CC(O)(Cn2cncc2Cl)C2(Cl)CC2)c1F` (stereo not shown) [Example I-143] the LogP was 2.35^[a].

For `N#Cc1cncn1CC(O)(Cc1ccncc1Cl)C1(Cl)CC1` (racemic) [Example I-57], the LogP was 1.88^[a].

In the case of `COc1cncn1CC(O)(Cc1ccccc1F)C1(Cl)CC1` (racemic) [Example I-35], the LogP is reported as 1.67^[a].

In the case of `N#Cc1cncn1CC(O)(Cc1ccc(-c2ccccc2)cc1)C1(Cl)CC1` (racemic) [Example I-63], the LogP [1] is reported as 3.68^[a].

In the case of `OC(Cc1ccccc1F)(Cn1cncc1C1CC1)C1(Cl)CC1` (racemic) [Example I-37], the LogP is reported as 1.86^[a].

With `COC(=O)c1cncn1CC(O)(Cc1ccccc1Cl)C1(Cl)CC1` (stereo not shown) [Example I-01] the LogP was 2.82^[a].

In the case of `OC(Cc1ccncc1Cl)(Cn1cncc1Cl)C1(Cl)CC1` (racemic) [Example I-72], the LogP is reported as 1.52^[a].

In the case of `OC(Cc1cc(Cl)ncc1Cl)(Cn1cncc1Cl)C1(Cl)CC1` (stereo not shown) [Example I-17], the LogP is reported as 2.18^[a].

For `OC(Cc1cc(Cl)nc(Cl)c1)(Cn1cncc1Cl)C1(Cl)CC1` (racemic) [Example I-74], the LogP was 2.23^[a].

For `Cc1cncn1CC(O)(Cc1ccccc1Cl)C1(Cl)CC1` (stereo not shown) [Example I-03], the LogP was 1.72^[a].

For `N#Cc1cncn1CC(O)(Cc1cccc(Cl)c1Cl)C1CCC1` (racemic) [Example I-85], the LogP was 3.31^[a].

In the case of `NC(=O)c1cncn1CC(O)(Cc1ccc(Cl)cc1F)C1CC1` (stereo not shown) [Example I-116], the LogP is reported as 1.49^[a].

For `Cc1cc(F)ccc1CC(O)(Cn1cncc1Cl)C1(Cl)CC1` (stereo not shown) [Example I-155], the LogP was 2.46^[a].

For `CC(C)C(O)(Cc1ccccc1F)Cn1cncc1C#N` (stereo not shown) [Example I-139], the LogP was 2.40^[a].

With `OC(Cc1cc(F)ncc1Cl)(Cn1cncc1Cl)C1(Cl)CC1` (stereo not shown) [Example I-18] the LogP was 2.01^[a].

In the case of `CC(C)C(O)(Cc1ccc(Cl)cc1F)Cn1cncc1C#N` (stereo not shown) [Example I-118], the LogP is reported as 2.91^[a].

For `OC(Cn1cncc1Br)(C(F)c1ccccc1Cl)C1(Cl)CC1` (stereo not shown) [Example I-23], the LogP was 2.32^[a].

With `N#Cc1cncn1CC(O)(Cc1cccc(F)c1F)C1CCC1` (stereo not shown) [Example I-148] the LogP was 2.57^[a].

With `N#Cc1cncn1CC(O)(Cc1ccc(F)cc1)C1(F)CC1` (racemic) [Example I-100] the LogP was 2.35^[a].

With `N#Cc1cncn1CC(O)(Cc1ccc(Br)cc1Cl)C1(Cl)CC1` (racemic) [Example I-41] the LogP was 3.52^[a].

With `N#Cc1cncn1CC(O)(Cc1ccc(Br)cc1F)C1(Cl)CC1` (racemic) [Example I-42] the LogP was 3.24^[a].

With `OC(Cc1ccccc1Cl)(Cn1cncc1C(F)(F)F)C1(Cl)CC1` (stereo not shown) [Example I-15] the LogP was 3.63^[a].

For `N#Cc1cncn1CC(O)(Cc1ccnnc1Cl)C1(Cl)CC1` (stereo not shown) [Example I-168], the LogP was 1.59^[a].

In the case of `OC(Cn1cncc1Cl)(C(F)c1ccccc1Cl)C1(Cl)CC1` (stereo not shown) [Example I-05], the LogP is reported as 2.17^[a].

With `CC(C)(C)CC(O)(Cc1ccccc1Cl)Cn1cncc1C#N` (racemic) [Example I-83] the LogP was 3.55^[a].

In the case of `Cc1ccccc1CC(O)(Cn1cncc1Cl)C1(Cl)CC1` (racemic) [Example I-71], the LogP is reported as 2.33^[a].

With `N#Cc1cncn1CC(O)(Cc1cc(Br)ncc1Br)C1(Cl)CC1` (racemic) [Example I-47] the LogP was 2.73^[a].

With `N#Cc1cncn1CC(O)(Cc1cc(Cl)ncc1Cl)C1(Cl)CC1` (racemic) [Example I-56] the LogP was 2.62^[a].

With `CC(C)(C)CC(O)(Cc1ccc(Cl)cc1)Cn1cncc1C#N` (racemic) [Example I-86] the LogP was 3.37^[a].

For `N#Cc1cncn1CC(O)(C(F)c1ccccc1Cl)C1(Cl)CC1` (stereo not shown) [Example I-24], the LogP was 2.82^[a].

For `N#Cc1cncn1CC(O)(Cc1ccc(Cl)cc1)C1(Cl)CC1` (racemic) [Example I-64], the LogP was 3.10^[a].

In the case of `CC(C)C(O)(Cc1ccccc1Cl)Cn1cncc1C#N` (racemic) [Example I-82], the LogP is reported as 2.67^[a].

In the case of `CSc1cncn1CC(O)(Cc1ccccc1Cl)C1(Cl)CC1` (stereo not shown) [Example I-22], the LogP is reported as 2.08^[a].

In the case of `N#Cc1cncn1CC(O)(Cc1ccc(F)cc1)C1(Cl)CC1` (stereo not shown) [Example I-157], the LogP is reported as 2.75^[a].

With `OC(Cc1cccc(Cl)c1Cl)(Cn1cncc1Cl)C1(Cl)CC1` (racemic) [Example I-66] the LogP was 2.69^[a].

For `Cc1cncn1CC(O)(C(F)c1ccccc1Cl)C1(Cl)CC1` (stereo not shown) [Example I-13], the LogP was 1.75^[a].

In the case of `O=C(Cc1ccccc1F)c1cncn1CC(O)(Cc1ccccc1F)C1(Cl)CC1` (stereo not shown) [Example I-134], the LogP is reported as 3.60^[a].

For `COC(Cc1ccc(Cl)cc1F)(Cn1cncc1C#N)C1CC1` (stereo not shown) [Example I-121], the LogP was 3.31^[a].

For `OC(Cc1ccccc1F)(Cn1cncc1Br)C1(Cl)CC1` (racemic) [Example I-33], the LogP was 2.10^[a].

For `OC(Cn1cncc1Cl)(C(F)c1ccccc1F)C1(Cl)CC1` (stereo not shown) [Example I-28], the LogP was 2.01^[a].

With `OC(Cc1c(Cl)ccnc1Cl)(Cn1cncc1Cl)C1(Cl)CC1` (stereo not shown) [Example I-11] the LogP was 2.02^[a].

In the case of `N#Cc1cncn1CC(O)(Cc1ccc(F)cc1)C1(Cl)CCC1` (stereo not shown) [Example I-159], the LogP is reported as 2.98^[a].

In the case of `N#Cc1cncn1CC(O)(Cc1cc(F)ncc1Cl)C1(Cl)CC1` (stereo not shown) [Example I-165], the LogP is reported as 2.38^[a].

With `CC1(C(O)(Cc2ccccc2Cl)Cn2cncc2C#N)CC1` (racemic) [Example I-79] the LogP was 2.87^[a].

For `CC(C)C(O)(Cc1ccc(F)cc1F)Cn1cncc1C#N` (stereo not shown) [Example I-128], the LogP was 2.52^[a].

With `N#Cc1cncn1CC(O)(Cc1cccc(Cl)c1Cl)C1(Cl)CC1` (racemic) [Example I-49] the LogP was 3.25^[a].

With `N#Cc1cncn1CC(O)(Cc1ccccc1Cl)C1CC1` (racemic) [Example I-80] the LogP was 2.57^[a].

With `COc1ccccc1CC(O)(Cn1cncc1C#N)C1(Cl)CC1` (racemic) [Example I-55] the LogP was 2.93^[a].

For `OC(Cc1ccccc1Cl)(Cn1cncc1I)C1(Cl)CC1` (stereo not shown) [Example I-14], the LogP was 2.14^[a].

In the case of `N#Cc1cncn1CC(O)(Cc1cc(Cl)cc(Cl)c1)C1(Cl)CC1` (racemic) [Example I-58], the LogP is reported as 3.55^[a].

In the case of `OC(Cc1ccc(F)cc1Cl)(Cn1cncc1Cl)C1(Cl)CC1` (stereo not shown) [Example I-08], the LogP is reported as 2.47^[a].

In the case of `O=C(Cc1ccccc1)c1cncn1CC(O)(Cc1ccccc1)C1(Cl)CC1` (stereo not shown) [Example I-169], the LogP is reported as 3.56^[a].

For `OC(Cc1ccc(F)cc1)(Cn1cncc1Cl)C1(Cl)CC1` (stereo not shown) [Example I-158], the LogP was 2.13^[a].

For `CCOC(Cc1ccc(Cl)cc1F)(Cn1cncc1Cl)C1(Cl)CC1` (stereo not shown) [Example I-122], the LogP was 3.10^[a].

In the case of `OC(Cc1cccc(F)c1F)(Cn1cncc1Cl)C1(Cl)CC1` (stereo not shown) [Example I-147], the LogP is reported as 2.17^[a].

In the case of `N#Cc1cncn1CC(O)(Cc1ccc(F)cc1)C1CCCC1` (stereo not shown) [Example I-161], the LogP is reported as 2.82^[a].

With `N#Cc1cncn1CC(O)(Cc1ccc(Cl)cc1F)C1CCC1` (stereo not shown) [Example I-117] the LogP was 3.13^[a].

In the case of `N#Cc1cncn1CC(O)(Cc1ccncc1C(F)(F)F)C1(Cl)CC1` (racemic) [Example I-92], the LogP is reported as 2.18^[a].

In the case of `OC(Cc1ccc(Cl)cc1F)(Cn1cncc1Br)C1(Cl)CC1` (stereo not shown) [Example I-30], the LogP is reported as 2.55^[a].

With `Cc1ccc(CC(O)(Cn2cncc2Cl)C2(Cl)CC2)c(C)c1` (racemic) [Example I-68] the LogP was 2.69^[a].

With `N#Cc1cncn1CC(O)(Cc1ccnc(Cl)c1)C1(Cl)CC1` (racemic) [Example I-62] the LogP was 2.04^[a].

For `N#Cc1cncn1CC(O)(Cc1cccnc1Cl)C1(Cl)CC1` (stereo not shown) [Example I-26], the LogP was 2.01^[a].

For `OC(Cc1cccnc1Cl)(Cn1cncc1Cl)C1(Cl)CC1` (stereo not shown) [Example I-07], the LogP was 1.57^[a].

In the case of `N#Cc1cncn1CC(O)(Cc1ccc(F)cc1)C1CCC1` (stereo not shown) [Example I-160], the LogP is reported as 2.56^[a].

In the case of `N#Cc1cncn1CC(O)(Cc1ccccc1I)C1(Cl)CC1` (stereo not shown) [Example I-166], the LogP is reported as 3.13^[a].

For `Cc1cncn1CC(O)(Cc1cccnc1Cl)C1(Cl)CC1` (stereo not shown) [Example I-10], the LogP was 1.22^[a].

In the case of `CCOC(=O)c1cncn1CC(O)(Cc1ccccc1F)C1(Cl)CC1` (stereo not shown) [Example I-135], the LogP is reported as 2.73^[a].

In the case of `OC(Cc1ccncc1F)(Cn1cncc1Cl)C1(Cl)CC1` (stereo not shown) [Example I-164], the LogP is reported as 1.46^[a].

In the case of `N#Cc1cncn1CC(O)(Cc1ccnc(Cl)c1F)C1(Cl)CC1` (stereo not shown) [Example I-152], the LogP is reported as 2.25^[a].

With `N#Cc1cncn1CC(O)(Cc1ccncc1F)C1(Cl)CC1` (stereo not shown) [Example I-163] the LogP was 1.62^[a].

For `N#Cc1cncn1C[C@](O)(Cc1ccccc1F)C1(Cl)CC1` [Example I-132, 1-[(2R)-2-(1-chlorocyclopropyl)-3-(2-fluorophenyl)-2-hydroxypropyl]-1H-imidazole-5-carbonitrile], the chromatographic logP (reversed phase HPLC column, method [a]: LC-UV, acidic range, 0.1% formic acid in water and acetonitrile as eluent, Table 1, compounds of formula (I)) was 2.59.

In the case of `OC(Cc1ccnc(Cl)c1)(Cn1cncc1Cl)C1(Cl)CC1` (racemic) [Example I-75], the LogP is reported as 1.62^[a].

In the case of `N#Cc1cncn1CC(O)(Cc1ccccc1Cl)CC1CC1` (racemic) [Example I-84], the LogP is reported as 2.84^[a].

In the case of `C=CCOC(Cc1ccc(Cl)cc1F)(Cn1cncc1Cl)C1(Cl)CC1` (stereo not shown) [Example I-123], the LogP is reported as 3.31^[a].

In the case of `CC(C)(C)C(O)(Cc1ccccc1F)Cn1cncc1C#N` (stereo not shown) [Example I-138], the LogP is reported as 2.73^[a].

For `N#Cc1cncn1CC(O)(Cc1ccccc1F)C1CCC1` (stereo not shown) [Example I-137], the LogP was 2.46^[a].

In the case of `OC(Cc1ccccc1Cl)(Cn1cncc1Br)C1(Cl)CC1` (stereo not shown) [Example I-04], the LogP is reported as 2.27^[a].
